Results: patent US20230089267A1, “Compositions and Methods For Reducing Immune Intolerance and Treating Autoimmune Disorders” (Lapix Therapeutics, Inc., priority 2021, published 2023)

What was measured:
[1] = tested on: pristane-induced lupus model; assay: Pristane-induced lupus model; assay type: in vivo, mice; settings: 3 μg SC daily, interim data
Experimental: Four-week old female Balb/c mice received 0.5 ml IP injection of pristane (Sigma Aldrich). Eight weeks post pristane injection, all mice tested positive for anti-dsDNA antibody titers (FUJIFILM Wako Pure Chemical Corporation), indicating systemic disease onset. On Day 60, mice were randomized to treatment (n=12) (Compound 2, 3 μg SC daily) or control group (n=11), and treatment was started. Mice were monitored daily for cutaneous lupus symptoms by checking for the appearance of skin lesions.

[2] = tested on: MOG35-55-induced murine EAE model; assay: Escalation treatment paradigm in MOG35-55-induced murine EAE model (Example 8); assay type: in vivo, mice
Experimental: Compound 2 (0.03 mg/ml) was formulated with hydroxypropyl beta cyclodextrin (HPCD) 1:80 (Compound 2:HPCD) and stored at 4° C. until use. Natalizumab, an anti-α4β1 integrin antibody is a monoclonal antibody that is approved by U.S. Food and Drug Administration (FDA) for the treatment of relapsing forms of MS. […] Natalizumab was diluted in PBS to a final concentration of 15 mg/ml before dosing. DMF is a disease-modifying therapy (DMT) recommended for the treatment of active relapsing multiple sclerosis. DMF (1 g) was dissolved in 50 ml of 4% solution of METHOCEL© to give a 20 mg/ml solution of DMF. The solution was stored at 4° C. until use.
Experimental autoimmune (allergic) encephalomyelitis (EAE) is considered to be the best non-clinical model of multiple sclerosis (MS). Over 6,000 papers have been published in scientific journals on this model. EAE is characterized by immune responses against CNS tissue and can be induced in animals by immunizing them against proteins of the CNS. In the active EAE model, mice are immunized with MOG35-55 peptide emulsified in Complete Freund's Adjuvant (CFA) by subcutaneous injection at the tail base (100 μg of […] per mouse) under anesthesia. On the day of injection (Day 0) and two days later (Day 2), mice receive an intraperitoneal injection of pertussis toxin (PT) in PBS at 200 ng/mouse/dose (0.1 mL). Symptoms typically develop in mice 9-14 days after immunization (Day 0). Daily observation and scoring of mice start on Day 7 and continue until the end of the study. Table 5 (see Example 4 above) details the expected clinical symptoms and the scoring criteria used in this study.
This study was designed to evaluate the early sustained use of Compound 2 versus DMF in a treatment escalation paradigm (sustained use cohort), and Compound 2 versus natalizumab after DMF failure (escalation cohort). All animals in the escalation cohorts received 14 doses of DMF or Compound 2, or 3 doses of natalizumab, as per group assignment.
Probability of disease control: Disease control was defined as a clinical score of less than 2.5. Animals in the different treatment groups were monitored after the 3:1:1 randomization. A score of 2.5 was recorded as an event and analyzed by survival analysis in GraphPad Prism 9. Animals not reaching a clinical score of 2.5 by day 14, the end of the treatment period, were assigned a score of zero for the survival analysis.
Efficacy of Compound 2 versus DMF in early sustained use: Animals in the DMF group that reached a score of 2.5 were randomized 1:1:1, as per FIG. 5A. Animals randomized to continue DMF treatment were given the remainder of the 14 DMF doses. Animals from the first randomization that were treated with Compound 2 after disease onset continued treatment for a total of 14 doses. After the 14th dose, treatment was stopped and clinical score and overall survival were monitored.
Efficacy of Compound 2 versus natalizumab in a treatment escalation cohort: Animals in the DMF group that reached a score of 2.5 were randomized 1:1:1, as per FIG. 5A. Animals randomized to natalizumab were dosed 100 μg/mouse IV every 3 days for 3 total doses starting the same day a score of 2.5 was recorded. Animals randomized to Compound 2 were dosed with 3 μg/mouse SC QD for 14 total doses starting on the same day a score of 2.5 was recorded.
Overall survival: Death due to the disease was monitored in the early sustained use cohort as well as the escalation cohort. Death by disease (clinical score of 5) was recorded as an event “1,” death due to ulceration or for ex vivo analysis was recorded as “0.” Animals surviving until the end of the study were recorded “0” on day 27. Survival analysis was done in GraphPad Prism 9.

[3] = Pilot stability study of oral solution with HPBCD; assay type: physicochemical
Experimental: Oral dosing solutions of different concentrations of Compound 2 were compounded ranging from 0.02 mg/ml to 3 mg/ml using a 1:80 ratio of Compound 2:HPBCD. Briefly, the compounding was performed by weighing and dissolving HPBCD in sterile HPLC grade water. Then, Compound 2 was weighed and added to the HPBCD solution in an appropriate container. To enhance dissolution, sonication and magnetic stirring were alternated to obtain a clear solution. Then, the solution was dispensed into PET amber bottles, appropriately labeled and stored under refrigeration until dosing.
A pilot stability study was performed on a 0.7 mg/ml Compound 2 oral solution at three temperatures: −20° C., 4° C., and room temperature (RT).
Samples were also subjected to three freeze-thaw cycles (−20° C. to room temperature). Solutions were evaluated for clarity. […] The potency of these solutions was also determined using an LC/MS assay.

[4] = tested on: FoxP3+/CD4+ T-cells (spleen); assay: Pharmacodynamics of a single ascending dose in mice, splenic T-cell phenotyping; assay type: in vivo; settings: for percent of FoxP3+/CD4+ T-cells, mean: single dose, spleen five days after dose
Experimental: All animal studies were conducted under IACUC number B2020-91 and in compliance with Tufts University/Tufts Medical Center & Human Nutrition Research Center on Aging. Animals were housed 4 per cage and had access to food and water ad libitum. Compound 2 was formulated with 10% DMSO in PBS buffer.
This study was designed to evaluate the PD effects of a single dose of Compound 2 in mice. Animals were administered a single oral gavage, as per their group assignment. Five days after the oral dose, animals were sacrificed, and their spleens were collected for T-cell phenotyping. FIG. 2A is a schematic diagram of the study design.
For ex vivo analysis, spleens were collected for splenocyte analysis, and prepared into a single-cell suspension for cellular phenotyping by flow cytometry. Cells were stained and gated for CD4. Percent FoxP3+/CD4+ T-cells and percent FoxP3+/NRP1+ were evaluated using flow cytometry. For dose-response analysis, dose versus response was fitted to 4- and 5-parameters, log-logistic models using the “dre” package in “R”. Both EC50 and EC90 were obtained by model fitting.

[5] = escalation cohort after DMF failure (score 2.5), by day 14 after switching
[6] = four-parameter dose-response model, single dose per mouse

N[C@@H](CNC(=O)Cc1ccc(OCc2cccc3ccccc23)cc1)C(=O)O [Compound 2, (S)-2-Amino-3-(2-(4-(naphthalen-1-ylmethoxy)phenyl)acetamido)propanoic acid]
incidence of cutaneous lupus ([1]; after two weeks of treatment): 8%
onset of cutaneous symptoms compared to untreated control mice [1]: delayed by two days
disease course in early sustained use cohort ([2]; 14 doses, followed to end of study): better overall disease control during therapy (day 1 to 14) and after stopping therapy (day 14 to end of study)
mean clinical score after switching from DMF [2, 5]: 2.6 (SD=1.1)
median clinical score after switching from DMF [2, 5]: 2.5
animals that survived until day 27, escalation cohort ([2]; switched from DMF): 8 out of 9
overall survival, early sustained use cohort ([2]; to day 27): all animals treated with Compound 2 survived until day 27
animals that progressed to a disease score of 2.5 ([2]; treatment from disease onset (score 1), over the entire treatment period (14 days)): 5 of the 9
potency on storage ([3]; 0.7 mg/ml oral solution, −20° C., 4° C. and room temperature): Potency was maintained over a minimum period of three months at all storage conditions
potency after storage and freeze-thaw cycles, LC/MS assay ([3]; 3-month storage and several freeze-thaw cycles): Potency was maintained
clarity after three freeze-thaw cycles ([3]; oral solution, −20° C. to room temperature): No precipitation was observed, and all solutions maintained clarity
ED50 for FoxP3+/CD4+ T-cells [4, 6]: 4.88 µg
ED90 for FoxP3+/CD4+ T-cells [4, 6]: 82.1 µg
increase of the number of FoxP3+/CD4+ T-cells (T-reg) ([4]; from the lowest dose to the highest dose group): 150%
percent of FoxP3+/CD4+ T-cells, mean ([4]; highest dose group): 25.4%
percent of FoxP3+/CD4+ T-cells, mean ([4]; lowest dose group): 10.7%
